Laboratory results from a melting point compilation (Tetko et al.; mined from patent text by program, amines drawn as free bases though some values may be those of a salt).

OC1Cc2cc(F)c(F)cc2C1 gave a melting point of 57 to 58 °C. Molecule CSC(C)=NOC(=O)N(C)SN(C)C(=O)ON=C(C)C(C)=NOC(=O)N(C)SN(C)C(=O)ON=C(SC)C(=O)N(C)C has a melting point of 87 to 110 °C. With COc1nc(C)nc(NC(=O)NS(=O)(=O)c2ccc(Cl)nn2)n1 the melting point was 135 °C. With CCCc1c(OCCCc2ccc3cc(OC)c(OC)cc3c2)ccc(C(=O)OCc2ccccc2)c1O the melting point was 94 to 96 °C. Molecule CCOC(=O)c1ccc(-c2coc(-c3ccc(C(F)(F)F)cc3)n2)cc1 has a melting point of 168 to 170 °C. Molecule O=C(c1ccccc1)c1ccc2nc(C(F)(F)F)c(Br)nc2c1 has a melting point of 152 to 154 °C. For O=C1c2cccc3cc([N+](=O)[O-])cc(c23)C(=O)N1OCc1ccccc1, the melting point was 239 to 241 °C. For COc1ccc(-c2ccncc2)cc1-c1cccc(Oc2ccccc2)c1, the melting point was 184 to 204 °C. Work on CC(C)Nc1cccnc1N1CCN(C(=O)c2ccc(C(=O)NCCc3cccs3)cn2)CC1 yielded a melting point of 131 to 134 °C. For O=CC(=Cc1ccc(Cl)cc1Cl)C1CCOCC1, the melting point was 82 to 85 °C. Molecule CCn1cc(C)c2cnc(NC(=O)c3ccc(C(C)(C)O)cc3)cc21 has a melting point of 198 to 200 °C. NC(=O)CCCSc1nccc(NC(N)=NCC(F)(F)F)n1 showed a melting point of 202 to 203 °C. O=C(O)c1csc(-c2ccc(OCC(F)(F)C(F)F)cc2)n1 showed a melting point of 170 to 173 °C. For CC#CCn1nnc2cc3c(=O)n(C(C)Cn4nccn4)nnc3cc2c1=O (stereo not drawn), the melting point was 154 to 156 °C. Molecule S=C(NCCc1ccccc1)N1CCN(c2cnccn2)CC1 has a melting point of 162 to 163 °C. COc1ccc(CS(=O)(=O)c2cc3ccc(O)cc3oc2=O)cc1[N+](=O)[O-] gave a melting point of 126 to 128 °C. Work on CC(C)c1nc(-c2cccc3c2OCO3)cc(-c2ccc(F)cc2)c1CO yielded a melting point of 114 to 115 °C. Work on Cc1onc(-c2ccccc2)c1-c1[nH]c2ccccc2c1CCN(C)C yielded a melting point of 142 to 144 °C. With CCc1ccc(NC(=O)Nc2ccc(Oc3ccnc(OC)c3)cc2)cc1 the melting point was 196 °C. COc1ccc2c(c1)Oc1cccc([N+](=O)[O-])c1N2 showed a melting point of 197 to 199 °C. CCCCCCC(C(=O)O)n1cc(Cc2ccccc2)c2cc(-c3ccccc3-c3nn[nH]n3)ccc21 (stereo not drawn) gave a melting point of 108 to 112 °C. O=C(NC1CCCCC1=Cc1ccccc1)C(F)(F)F (stereo not drawn) showed a melting point of 109 to 110 °C. For N#CC(N=Nc1cc(S(=O)(=O)O)ccc1OC(=O)c1ccccc1)=C(OC(=O)c1ccccc1)c1ccccc1, the melting point was 193 to 195 °C. Molecule CC(C)(C)NCCCS(=O)(=O)O has a melting point of over 280 °C. CS(=O)(=O)c1ccc(C=Cc2ccc(OCCO)cc2)cc1 showed a melting point of 224 to 226 °C. CN1CCN(C(=O)CCC(=O)c2ccc3[nH]c4ncc(Cl)cc4c3c2)CC1 gave a melting point of 233 °C. With CCOC(=O)C1=NNC(C)=C(C(=O)OCC)C1c1cccc([N+](=O)[O-])c1 (stereo not drawn) the melting point was 117 °C. Work on CC12CC(O)C3c4cc(O)ccc4CCC3C1CCC2O (stereo not drawn) yielded a melting point of 229 to 232 °C. Molecule NC1=NC(c2ccc(O)cc2)(c2cccc(-c3cccnc3F)c2)C2=NCCCN12 (stereo not drawn) has a melting point of 164 to 181 °C. For CCCOc1c(OC)cc([C@H]2CC[C@H](c3cc(OC)c(OC)c(OC)c3)O2)cc1S(=O)(=O)CCO (relative stereo), the melting point was 141 to 142 °C. In the case of COc1ccc(-c2ccc3c(-c4ccccc4)c(OC)ccc3c2)cc1, the melting point is reported as 157 to 160 °C. For Cc1ccc(C2CCN(C(=O)Nc3ccc4cc(CN5CCCC5)cnc4c3)CC2)cc1, the melting point was 244 to 246 °C. With Cc1ccc(NC(=O)c2cc(Cl)c(O)c(Cl)c2)c(O)c1 the melting point was 246 to 247 °C. Cc1cc(N)c(NC(=O)OC(C)(C)C)cc1C(F)(F)F gave a melting point of 144 °C. Work on COc1ccc([N+](=O)[O-])c(C=O)c1OC yielded a melting point of 106 to 108 °C. With N#Cc1ccc(CC23CCCN2C(=O)N(c2cc(Cl)cc(Cl)c2N)C3=O)cc1 (stereo not drawn) the melting point was 122 °C. Work on NNC(=O)c1cn2c(nc1=O)CCC2 yielded a melting point of 204 to 206 °C. With C=CC(=O)NCCCCOc1ccccc1 the melting point was 46 to 47 °C. CCOc1ccc2nc(N3CCC(OC[C@H](C)NC(C)=O)CC3)sc2c1 gave a melting point of 129 to 131 °C. Cc1cc(C)cc(C(=O)c2c(-c3ccc(OCCCN(C)C)cc3)oc3ccccc23)c1 gave a melting point of 103 to 106 °C. CCCCN(C)c1nsc(N)c1C#N showed a melting point of 87 to 89 °C. Molecule COc1cc(CNC(=O)c2ccc3n2Cc2ccccc2N(C(=O)c2ccc(-c4ccccc4C)c(C)c2)C3)cc(OC)c1 has a melting point of 183 to 184 °C. For O=C(Nc1n[nH]c(=S)s1)NC(Cc1ccccc1)C(=O)NCc1cccnc1 (stereo not drawn), the melting point was 99 to 101 °C. In the case of O=C(CC(=O)c1ccccc1Cl)Nc1ccccc1, the melting point is reported as 142 °C. CCS(=O)(=O)Cc1c(Cl)c(Cl)cc2nc(OC)c(OC)nc12 gave a melting point of 150 to 152 °C. With CCN1CCN(c2nc(-c3ccc(OCCO)cc3)cc3ccsc23)CC1 the melting point was 135 to 136 °C. With O=C(CCN1CCN(c2cccc(C(F)(F)F)c2)CC1)c1ccc2c(c1)Cc1cc(C(=O)CCN3CCN(c4cccc(C(F)(F)F)c4)CC3)ccc1O2 the melting point was 155 to 157 °C. With COc1cc(O)c(Cl)c2cc(-c3ccc(O)cc3)oc12 the melting point was 176 to 177 °C. In the case of Cc1cc(-c2ccc(O)cc2)cc2ccc(=O)[nH]c12, the melting point is reported as 270 to 274 °C. For CC(=O)Oc1ccc(CCc2cccc(OC(C)=O)c2)cc1, the melting point was 69.5 to 70 °C. Molecule CN(C)C=C(C#N)C(=O)c1cc(F)c(Cl)cc1Cl has a melting point of 138 to 139 °C. Molecule CCOC(=O)C1=C(C)Nc2nc(N3CCOCC3)nc(N3CCOCC3)c2C1c1cccc2nonc12 (stereo not drawn) has a melting point of 234 °C. For Nc1cc(Sc2ccc3c(C(=O)O)cccc3c2)ncn1, the melting point was 264 to 266 °C. In the case of C#CCn1c(=O)sc2cc(F)c(-n3c(=O)cc(C(F)(F)F)[nH]c3=O)cc21, the melting point is reported as 224 to 227 °C. With CCSc1cc(C)nc(SCC)c1NC(=O)CCCSc1nc2cccc(C(F)(F)F)c2o1 the melting point was 148 to 150 °C. Work on Cc1ccc(-c2cc(F)cc3c2NC(CN)CO3)c(C(F)(F)F)c1 (stereo not drawn) yielded a melting point of 86 °C. CCN(c1ccccc1C)S(=O)(=O)c1cc([N+](=O)[O-])ccc1C gave a melting point of 78 to 80 °C. With COc1ccc(C=CC(=O)c2ccc(O)c(CC(=O)O)c2)cc1OC the melting point was 225 °C. Work on CNC(=O)Nc1nnc(C(F)F)s1 yielded a melting point of 198 to 200 °C. Work on OCCn1cc(-c2ccc3nnn(Cc4c(F)ccc(F)c4Cl)c3n2)cn1 yielded a melting point of 143 to 145 °C. CCOC(=O)c1oc2cccc(OCC(C)O)c2c1C (stereo not drawn) showed a melting point of 94 to 96 °C. For COc1cc(C2C(C(=O)O)c3ccccc3C(=O)N2C)cc(OC)c1OC (stereo not drawn), the melting point was 194 to 195 °C. CCOC(=O)c1cn(-c2nonc2C)c2cc(F)c(F)c(C)c2c1=O gave a melting point of 174 °C. O=C1CCC(O)(c2nc3ccccc3s2)CC1 gave a melting point of 134 °C. Work on BrCCCc1ncnn1C(c1ccccc1)(c1ccccc1)c1ccccc1 yielded a melting point of 146 to 149 °C. Work on Clc1ccc(-c2noc(CCC#Cc3ccccn3)n2)cc1 yielded a melting point of 75 to 77 °C. CCOc1ccccc1-c1ccc2cnc(Nc3ccc(N4CCN(C)CC4)cc3)nn12 showed a melting point of 164 to 165 °C. O=C1c2ccccc2C(=O)c2c1cccc2N1CCN(CCO)CC1 showed a melting point of 140 °C. Molecule N#CSCC(=O)c1ccc(Br)cc1 has a melting point of 148 to 149 °C. In the case of CCCCc1cn(Cc2ccc(-c3ccccc3C(=O)O)cc2)c2c(c1=O)CC(C)CC2 (stereo not drawn), the melting point is reported as 255 °C. In the case of C=CC(=O)OCCSc1ccc2sc3ccccc3c(=O)c2c1, the melting point is reported as 68 to 71 °C. COc1ccc(C(=O)NCCCCOc2ccc(-n3ccnc3)cc2)cc1 gave a melting point of 125 to 126 °C. In the case of CC(C)(C)OC(=O)N1[C@@H](c2ccccc2)[C@H](C(=O)OC(=O)[C@@H]2OC(C)(C)N(C(=O)OC(C)(C)C)[C@H]2c2ccccc2)OC1(C)C, the melting point is reported as 46 °C. In the case of Clc1cc2c(-c3ccccc3)coc2c2ccccc12, the melting point is reported as 66 to 69 °C. For Nc1ncc2c(n1)-c1ccc(-c3ccccc3)cc1C(c1ccc(Cl)c(Cl)c1)C2 (stereo not drawn), the melting point was 186 to 187 °C. Work on CCOC(=S)c1ccc2sc(CCl)c(C)c2c1 yielded a melting point of 95 to 96 °C. O=[N+]([O-])c1ccc(C#CCCN2CCN(c3ccccn3)CC2)nc1 showed a melting point of 126 °C. O=C(O)CN1C(=O)C(=Cc2cccnc2)SC1=S gave a melting point of 261 to 264 °C. NC(=O)Nc1ccc(/C=C/C(=O)O)cc1 showed a melting point of over 350 °C. CCOC(=O)Cc1sc(SCc2cc(O)nc(O)n2)nc1C gave a melting point of 203 to 204 °C. Work on CCC1Cc2cc(OCC(=O)O)cc(Br)c2C1=O (stereo not drawn) yielded a melting point of 146 to 148 °C. Molecule COc1cc(OC)c(N2CCCC2)cc1/C=C/C(=O)c1ccc(S(=O)(=O)NCCCn2ccnc2)cc1 has a melting point of 140 to 143 °C. Work on CCCCN(CCCC)CCCCC(=O)c1ccc2c(c1)Cc1cc(C(=O)CCCCN(CCCC)CCCC)ccc1-2 yielded a melting point of 48 to 50 °C. Work on Cc1nnc2n1-c1ccc(Cl)cc1C(c1ccccc1)=CC2 yielded a melting point of 235 °C. COc1ccc2cc(C(C)C(=O)OCC(=O)OCCO)ccc2c1 (stereo not drawn) showed a melting point of 87 to 90 °C. Cc1ccc(S(=O)(=O)N(C)c2ccc(Cl)cc2C#N)cc1 showed a melting point of 145 to 147 °C. For Cn1c(CC(=O)O)ccc1C(=O)c1ccccc1Cl, the melting point was 140 to 141 °C. For COc1cc(Nc2c(C#N)cnc3sccc23)c(Cl)cc1Cl, the melting point was 197 to 199 °C. CC(C)(C)c1cc(-c2nn(C3CCOC3=O)c3ncccc23)cc(C(C)(C)C)c1O (stereo not drawn) showed a melting point of 164 to 167 °C. In the case of Cc1cc(OC(C)c2ccc(-c3ccccc3-c3nnn(C(c4ccccc4)(c4ccccc4)c4ccccc4)n3)cc2)c2ccccc2n1 (stereo not drawn), the melting point is reported as 160 to 161 °C. CCCCCC(=O)c1ccc(OCc2ccc3ccccc3n2)cc1 gave a melting point of 78 to 80 °C. Work on COc1nc(Cl)nc(N)c1-c1ccccc1 yielded a melting point of 213 °C. CCC(CC)n1ncn(-c2ccc(N3CCN(c4ccc5c(=O)n([C@H](C)[C@](O)(Cn6cncn6)c6ccc(F)cc6F)cnc5c4)CC3)cc2)c1=O gave a melting point of 208 to 210 °C. O=C(Cc1ccccc1N1CCCC1)N1C[C@@H]2SCCC(c3ccccc3)(c3ccccc3)[C@@H]2C1 (racemic) showed a melting point of 166 °C. For O=[N+]([O-])c1cc(CCCl)ccc1O, the melting point was 53 to 55 °C. With O=c1[nH]c(CCc2ccccc2OCc2ccccc2)ccc1-c1nnn[nH]1 the melting point was 211 to 213 °C. For ClCc1csc(N2CCOCC2)n1, the melting point was 87 to 88 °C. For C[C@H](NC(=O)COCCN1C(=O)c2ccccc2C1=O)C(=O)N[C@H](CCC(=O)OCc1ccccc1)C(N)=O, the melting point was 205 to 206 °C.
